The text below walks through data of patent US11197856B2, “Bicyclic compounds and methods for their use in treating autism” (priority 2013, dated 2021).

In assay [1] the test system is hippocampal LTP in MeCP2 deficient mice. Briefly: Hippocampal long-term potentiation (fEPSP slope) in MeCP2 deficient mice. Conditions: MeCP2 deficient mice at 9 weeks; vs saline. It counts as in vivo. From the text:
MeCP2 deficient mice have been previously reported to suffer from functional and ultrastructural synaptic dysfunction, significant impairment of hippocampus-dependent memory and hippocampal long-term potentiation (LTP) (Moretti et al. The Journal of Neuroscience. 2006. 26(1):319-327). To test the effects of the cG-2-AllylP treatment on synaptic function in the RTT model we compare hippocampal LTP in both vehicle and cG-2-AllylP-treated animals at 9 weeks of age. To do so, we measure the slope of the fEPSP as a % of baseline potential in neurons in slices of hippocampus from MeCP2 deficient mice treated with either saline or cG-2-AllylP.

The test system of another assay is p-ERK1/2. As to the kind of experiment: Phospho-flow cytometry of lymphocytes, p-ERK1/2. It counts as in vivo. Particulars: fmr1-knockout mice; 15, 30, 60 and 240 minutes after a single treatment. An excerpt:
Lymphocytes are isolated from five fmr1-knockout and five wild-type titter mate control mice, per study time after injection with cG-2-AllylP. Lymphocytes are examined for activation of two signaling effectors, p-ERK1/2 and p-Akt using phosphorylation status as a measure of activation by flow cytometry (phospho-flow).
1. Flow cytometry total and phosphorylated ERK in lymphocytes

For a further assay, the system named is ERK1/2. Briefly: Phosphorylated ERK by Western blot. Particulars: full brain lysates; fmr1-knockout animals vs vehicle. It counts as in vivo, mice. The protocol: Phosphorylation levels of ERK1/2 and Akt of full brain lysates were evaluated using Western blots. The mice were sacrificed and the brains removed 12 days after the last injection, and immediately after the last behavioral test. Other studies measured pERK and pAkt in blood lymphocytes. The results of Western analysis were normalized to the amount of GAPDH protein seen in each blot.
For orientation: Immunoblotting shows a protein as a band on a membrane.

Assay [2] has as its system fmr1-knockout hippocampal neurons. Briefly: Dendritic spine density in hippocampal cell cultures. Type of assay: cell-based, mice. The protocol: Hippocampal cell cultures were prepared from wild type and fmr1-knockout fetal mice (14-16 days of gestation). Briefly, mice were kill by cervical dislocation under chloroform anesthesia, and dissociated hippocampal cells were plated in 13 mm multiwell vessels (Falcon Primaria). A plating medium of MEM-Eagle's salts (supplied glutamine free) supplemented with 10% fetal bovine serum was used. Cultures were kept at 37° C. in a humidified 3% CO2 atmosphere. After 3d in vitro, green fluorescent protein (GFP) was added to monitor dendritic spine morphogenesis during time-course of culture (Ethell and Yamaguchi, 1999; Ethell et al., 2001, Henkemeyer et al., 2003). The dendritic spines usually formed between 7 and 14 days in vitro (DVI). By 14 DIV most dendritic protrusions were spines. The mean (±SD) spine density was measured as number of spines per micrometer and experiments were run in triplicate.

Assay [3] concerns rats exposed to hypoxic-ischemic injury (HI). Briefly: Hypoxic-ischemic injury (HI), modified Levine model, tissue damage score. Type of assay: in vivo, Wistar rats. From the text:
Adult rats (Wistar, 280-310 g, male) were used. The modified Levine model preparation and experimental procedures were used (Rice et al, 1981, Ann. Neurol. :9: 131-141; Guan et al J., 1993, Cereb. Blood Flow Metab.: 13(4): 609-16). These procedures in brief, consist of an HI injury induced by unilateral carotid artery ligation followed by inhalational asphyxia in the animals with an implanted lateral ventricular cannula. A guide cannula was stereotaxically placed on the top of the dura 1.3 mm to the right of the mid-line and 7.3 mm anterior to the interaural zero plane under halothane anaesthesia. The right carotid artery was double ligated two days after the cannulation. After 1 hour recovery from the anaesthesia, each of the rats were placed in an incubator where the humidity (90±5%) and temperature (31°±0.5° C.) were controlled for another hour, then exposed to hypoxia (6% oxygen) for 10 min. […]
Coronal sections 8 μm in thickness were cut from the striatum, cerebral cortex and hippocampus and were stained with thionin and acid fuchsin. The histological outcome was assessed at three levels: (1) the mid level of the striatum, (2) where the completed hippocampus first appeared and (3) the level where the ventral horn of the hippocampus just appears. The severity of tissue damage was scored in the striatum, cortex and the CA1-2, CA3, CA4 and dentate gyrus of the hippocampus. […]

Assay [4] concerns neurons in the CA3 region of the hippocampus. As to the kind of experiment: Neuron soma size in the hippocampus. Type of assay: in vivo, mice. The procedure:
We also measure the effect of cG-2-AllylP treatment on neuron soma size in the hippocampus. Mice are treated with cG-2-AllylP as described above for locomotor activity.

Assay [5] deals with heterozygous Shank3-deficient mice. Briefly: Shank3-deficient mice: olfactory habituation/dishabituation. It counts as in vivo. Conditions: all 4 groups. The protocol:
1 to 3 month old wild-type and heterozygous Shank3-deficient mice are divided into 4 treatment groups: placebo treated wild-type, placebo treated Shank3-deficient group and two Shank3-deficient cG-2-AllylP treated groups. The animals are given placebo (water) or cG-2-AllylP formulated in water administered orally, b.i.d for 14 days. cG-2-AllylP is administered at two doses: 15 or 60 mg/kg.
Olfactory habituation/dishabituation testing is conducted in male and female mice for each group. The methodology is as previously described (Silverman et al 2010, Yang et al 2009 and Silverman et al 2010). Non-social and social odors are presented on a series of cotton swabs inserted into the home cage sequentially, each for 2 min, in the following order; water, water, water (distilled water); almond, almond, almond (1:100 dilution almond extract); banana, banana, banana (1:100 dilution artificial banana flavouring); social 1, social 1, social 1 (swiped from the bottom of a cage housing unfamiliar sex-matched B6 mice); and social 2, social 2, social 2 (swiped from the bottom of a second cage housing a different group of unfamiliar sex-matched 129/SvImJ mice). One-way repeated measures ANOVA is performed within each treatment group for each set of habituation events and each dishabituation event, followed by a Tukey post hoc test.

Turning to `C=CC[C@]12CCCN1C(=O)CNC2=O` [cG-2-AllylP, (8aS)-Allyl-hexahydropyrrolo[1,2-a]pyrazine-1,4-dione], the “slope of fEPSP (hippocampal LTP)” value in assay [1] is reported as “increases the slope of fESPS”. In addition, the “mean fluorescent intensity (MFI) for p-ERK1/2” value with p-ERK1/2 was “decreases at all time points”. Moreover, the ERK phosphorylation entry with ERK1/2 was “significantly reduced ERK phosphorylation”. Besides, the “spine density (mean±SD)” value in assay [2] (0.5 nM, n=3) was 0.36±0.02 number of spines per micromete; in assay [2] (5 nM), 0.25±0.03 number of spines per micromete; in assay [2] (50 nM), 0.27±0.10 number of spines per micromete. In addition, the tissue damage score entry in assay [3] (2 ng icv 2 hours after HI, each brain region, vs vehicle p<0.001) is “significantly reduced the tissue damage in each brain region examined”. In addition, the “neural damage after hypoxia/ischemia” value in assay [3] (2, 4, 20, 100 ng icv, all other sites and all other doses) was “lessened the neural damage effects of hypoxia/ischemia”. Also, the average soma size entry in assay [4] (KO animals) is reported as “increases average soma size in KO animals”. Further, the soma size entry in assay [4] (wild type animals) is reported as “little or no effect on soma size in wild type animals”. In assay [5], the olfactory habituation entry is listed as “normal levels of habituation”.
